Laboratory results published in US8609685B2, “SMAC mimetic compounds as apoptosis inducers” (CISI SCRL, priority 2007, dated 2013).
Read-outs that look alike come from different tables or passages of the source.

Assays:
MDA-MB-231 cells = test: Standalone cytotoxicity, MTT assay, MDA-MB-231; assay type: cell-based; conditions: Homo sapiens; for IC80: read-out: IC80 (μM ± standard Deviation); for IC50: read-out: IC50 (μM ± standard Deviation)
Procedure: Reagents for cell culture were purchased from Sigma unless otherwise indicated below. […] A subcultivation ratio of 1:4 was used.
(§1) The cellular growth inhibitory effect of our compounds was evaluated using the MTT assay (Sigma). After 96 hours of treatment, 10 μl of MTT reagent solution (5 mg of MTT powder/ml diluted in Phosphate Buffer Salt saline solution) were added in each well and allowed to react for 3 hours in the incubator. After 3 hours cells were solubilized in Lysis Buffer (10% SDS/0.1% HCl in water, 100 μl for each well) for 24 hours at 37° C. Finally, the absorbance was measured at 570 nm using a multiplate reader. Absorbance values were collected and IC50/IC80 values were determined using GraphPad Prism 5 software. The experiments were repeated twice.
MDA-MB-231 cells were seeded in 96-well flat bottom cell culture plates at a density of 5000 cells/well in 100 μl of culture medium and allowed to adhere for 24 hours in the incubator. After 24 hours MDA-MB-231 cells were exposed to the compounds at various concentrations for 96 hours in the incubator (50 nM, 100 nM, 200 nM, 500 nM, 1 μM, 5 μM, 10 μM, 50 μM and 100 μM). Each point was done in triplicate.
as §1, with “After” for “The cellular growth inhibitory effect of our compounds was evaluated using the MTT assay (Sigma). After”

KMS26 cell line = test: Standalone cytotoxicity, WST-1 colorimetric assay, KMS26; assay type: cell-based; conditions: Homo sapiens, KMS-26
Procedure: (§2) All the cell lines were grown at density of 1×10^5 cells per ml and seeded (100 μl of cell suspension/well) on 96-well microtiter plates with or without escalating doses of SMAC-mimic compounds. Cells were incubated at 37° C. in a 5% CO2 fully humidified atmosphere and examined at 24, 48 and 72 hours for cytotoxicity with the WST-1 colorimetric assay. […] Data are expressed as mean percentage of three replicates normalized to the untreated control.

ARH77 cell line = test: Standalone cytotoxicity, WST-1 colorimetric assay, ARH77; assay type: cell-based; conditions: Homo sapiens, ARH-77
Procedure: as §2, with “HL60 and K562 human cell lines were cultured in RPMI 1640 culture medium supplemented with 10% FBS while the ARH77 and KMS26 cell lines were cultured in IMDM culture medium supplemented with 10% FBS. All” for “All”

K562 cells [1] = test: Combination treatment with cytotoxic agents, WST-1 assay, K562; conditions: Homo sapiens, K562, 72 h, read-out: cell growth/viability, mean percentage normalized to the untreated control
HL60 cells [2] = test: Combination treatment with cytotoxic agents, WST-1 assay, HL60; assay type: cell-based; conditions: Homo sapiens, HL-60, 72 h; read-out: cell growth/viability, mean percentage normalized to the untreated control
HL60 cells [3] = test: Standalone cytotoxicity, WST-1 colorimetric assay, HL60; assay type: cell-based; conditions: Homo sapiens, HL-60
Procedure: as §2

K562 cells [4] = test: Standalone cytotoxicity, WST-1 colorimetric assay, K562; assay type: cell-based; conditions: Homo sapiens
Procedure: as §2

[5] = molecular target: T1, human XIAP linker-BIR2-BIR3 (Homo sapiens, UniProt P98170); test: Fluorescence polarization competitive binding, displacement of SMAC-1F probe from XIAP linker-BIR2-BIR3-His-tag; conditions: XIAP linker-BIR2-BIR3, average of three independent measurements
T1 construct: human XIAP from residue 124 to 356 (linker-BIR2-BIR3); made in house; host or cells: Escherichia coli BL21
Procedure: (§3) Data were analyzed using Prism 4.0 software (Graphpad Software).

human XIAP BIR3 domain = molecular target: T2, human XIAP BIR3 domain (Homo sapiens, UniProt P98170); test: Fluorescence polarization competitive binding, displacement of FITC-SMAC probe from XIAP BIR3-His-tag; conditions: XIAP BIR3, average of three independent measurements
T2 construct: human XIAP BIR3 domain from residue 241 to 356; made in house; host or cells: Escherichia coli BL21
Procedure: as §3

XIAP = XIAP (Homo sapiens, UniProt P98170); conditions: background statement; cited from earlier work
Sequence of XIAP (P98170 whole entry): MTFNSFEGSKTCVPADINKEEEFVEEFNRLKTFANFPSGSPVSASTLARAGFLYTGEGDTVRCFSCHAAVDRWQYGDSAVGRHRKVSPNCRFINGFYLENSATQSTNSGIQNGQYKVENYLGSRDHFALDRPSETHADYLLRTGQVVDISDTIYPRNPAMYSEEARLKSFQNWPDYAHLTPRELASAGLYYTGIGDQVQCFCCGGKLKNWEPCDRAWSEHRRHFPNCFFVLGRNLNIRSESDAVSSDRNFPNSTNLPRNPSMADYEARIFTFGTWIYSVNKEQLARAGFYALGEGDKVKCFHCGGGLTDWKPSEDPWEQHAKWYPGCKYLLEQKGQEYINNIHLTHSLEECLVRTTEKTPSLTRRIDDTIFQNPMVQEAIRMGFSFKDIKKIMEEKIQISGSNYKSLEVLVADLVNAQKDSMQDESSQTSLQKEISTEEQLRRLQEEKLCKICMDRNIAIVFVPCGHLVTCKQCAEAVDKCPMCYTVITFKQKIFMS

T2 sequence (P98170 241-356): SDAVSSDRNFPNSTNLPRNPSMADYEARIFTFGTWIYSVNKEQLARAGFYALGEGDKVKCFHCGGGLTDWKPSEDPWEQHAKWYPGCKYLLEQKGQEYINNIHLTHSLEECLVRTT
T1 sequence (P98170 124-356): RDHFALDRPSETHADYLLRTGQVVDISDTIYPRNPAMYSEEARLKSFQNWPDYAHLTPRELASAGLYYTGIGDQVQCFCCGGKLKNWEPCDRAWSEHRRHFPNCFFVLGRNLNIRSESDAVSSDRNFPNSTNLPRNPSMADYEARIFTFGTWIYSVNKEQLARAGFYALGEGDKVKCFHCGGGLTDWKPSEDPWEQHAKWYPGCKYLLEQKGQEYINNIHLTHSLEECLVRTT

`CC[C@H](N)C(=O)N[C@@H]1C(=O)N2[C@@H](CC[C@@H]1CO)CC[C@H]2C(=O)NC(c1ccccc1)c1ccccc1` [Compound 24a] gave an IC80 (MDA-MB-231 cells; MDA-MB-231, 96 hours, MTT) of 3.9 ± 0.07 µM, an IC50 (KMS26 cell line; KMS26, 24 hrs) greater than 10000 nM and an IC50 (ARH77 cell line; ARH77, 24 hrs) greater than 10 µM. For the same molecule, the IC50 (ARH77 cell line; ARH77, 48 hrs) was greater than 10 µM, the IC50 (ARH77 cell line; ARH77, 72 hrs) was greater than 10 µM and the viability at 0.05 µM (K562 cells [1]) was 90%. The viability at 0.01 µM (HL60 cells [2]) was 110%, the IC50 (HL60 cells [3]; HL60, 24 hrs) was greater than 10 µM and the IC50 (K562 cells [4]; K562, 24 hrs) was greater than 10 µM. The IC50 (K562 cells [4]; K562, 48 hrs) was greater than 10 µM and the IC50 (K562 cells [4]; K562, 72 hrs) was greater than 10 µM.

Molecule `CC[C@H](NC)C(=O)N[C@@H]1C(=O)N2[C@@H](CC[C@@H]1CO)CC[C@H]2C(=O)NC(c1ccccc1)c1ccccc1` [Compound 24g] has an IC50 (MDA-MB-231 cells; MDA-MB-231, 96 h) of 0.237 ± 0.003 µM and an IC80 (MDA-MB-231 cells; MDA-MB-231, 96 hours, MTT) of 0.87 ± 0.004 µM.

In the case of `CC[C@H](N)C(=O)N[C@@H]1C(=O)N2[C@@H](CC[C@@H]1CN=[N+]=[N-])CC[C@H]2C(=O)NC(c1ccccc1)c1ccccc1` [Compound 25a], the IC50 (HL60 cells [3]; HL60, 24 hrs) is reported as greater than 10 µM, the IC50 (HL60 cells [3]; HL60, 48 hrs) is reported as 3.32 µM and the IC50 (HL60 cells [3]; HL60, 72 hrs) is reported as 0.0018 µM. For the same molecule, the IC50 (K562 cells [4]; K562, 24 hrs) was 4.78 µM, the IC50 (K562 cells [4]; K562, 48 hrs) was 3.95 µM and the IC50 (K562 cells [4]; K562, 72 hrs) was 2.13 µM.

`CC[C@H](N)C(=O)N[C@@H]1C(=O)N2[C@@H](CC[C@@H]1CN)CC[C@H]2C(=O)NC(c1ccccc1)c1ccccc1` [Compound 26a] showed an IC50 (KMS26 cell line; KMS26, 24 hrs) greater than 10000 nM, an IC50 (KMS26 cell line; KMS26, 48 hrs) of 0.002 nM and an IC50 (KMS26 cell line; KMS26, 72 hrs) of 62.3 nM. For the same molecule, the IC50 (ARH77 cell line; ARH77, 24 hrs) was greater than 10 µM, the IC50 (ARH77 cell line; ARH77, 48 hrs) was greater than 10 µM and the IC50 (ARH77 cell line; ARH77, 72 hrs) was greater than 10 µM. It also gave an IC50 (K562 cells [4]; K562, 24 hrs) of 0.593 µM, an IC50 (K562 cells [4]; K562, 48 hrs) of 6e-05 µM and an IC50 (K562 cells [4]; K562, 72 hrs) of 8e-05 µM.

`CC[C@H](N)C(=O)N[C@@H]1C(=O)N2[C@@H](CC[C@@H]1COC(C)=O)CC[C@H]2C(=O)NC(c1ccccc1)c1ccccc1` [Compound 30a] gave an IC50 (HL60 cells [3]; HL60, 24 hrs) greater than 10 µM, an IC50 (HL60 cells [3]; HL60, 48 hrs) of 1.79 µM and an IC50 (HL60 cells [3]; HL60, 72 hrs) of 0.623 µM. It also gave an IC50 (K562 cells [4]; K562, 24 hrs) greater than 10 µM, an IC50 (K562 cells [4]; K562, 48 hrs) greater than 10 µM and an IC50 (K562 cells [4]; K562, 72 hrs) greater than 10 µM.

Work on `CC[C@H](N)C(=O)N[C@@H]1C(=O)N2[C@@H](CC[C@@H]1CCN)CC[C@H]2C(=O)NC(c1ccccc1)c1ccccc1` [Compound 38a] yielded an IC50 (MDA-MB-231 cells; MDA-MB-231, 96 hours, MTT) of 12.9 ± 0.3 µM, an IC80 (MDA-MB-231 cells; MDA-MB-231, 96 hours, MTT) of 33.9 ± 0.7 µM and an IC50 [5] of 0.085 µM. It also gave an IC50 (human XIAP BIR3 domain) of 0.324 µM.

In the case of `CC[C@H](NC)C(=O)N[C@@H]1C(=O)N2[C@@H](CC[C@@H]1CCN)CC[C@H]2C(=O)NC(c1ccccc1)c1ccccc1` [Compound 38d], the IC50 (MDA-MB-231 cells; MDA-MB-231, 96 h) is reported as 2.3 ± 1.2 µM and the IC80 (MDA-MB-231 cells; MDA-MB-231, 96 hours, MTT) is reported as 14.8 ± 1 µM.

With `CC[C@H](N)C(=O)N[C@@H]1C(=O)N2[C@@H](CC[C@@H]1Cn1cc(CO[C@H](C)[C@H](NC(=O)[C@H](C)NC)C(=O)N3CCC[C@H]3Cn3nnnc3Sc3ccccc3)nn1)CC[C@H]2C(=O)NC(c1ccccc1)c1ccccc1` [Compound 44a] the IC50 (MDA-MB-231 cells; MDA-MB-231, 96 hours, MTT) was 0.168 ± 0.002 µM, the IC80 (MDA-MB-231 cells; MDA-MB-231, 96 hours, MTT) was 0.288 ± 0.003 µM and the IC50 (ARH77 cell line; ARH77, 24 hrs) was greater than 10 µM. The IC50 (ARH77 cell line; ARH77, 48 hrs) was greater than 10 µM, the IC50 (ARH77 cell line; ARH77, 72 hrs) was greater than 10 µM and the viability at 0.0001 µM (K562 cells [1]) was 89%.

Molecule `CC[C@H](N)C(=O)N[C@@H]1C(=O)N2C(CC[C@@H]1CNC(=O)CCC#CC#CCCC(=O)NC[C@H]1CC[C@H]3CC[C@@H](C(=O)NC(c4ccccc4)c4ccccc4)N3C(=O)[C@H]1NC(=O)[C@@H](N)CC)CC[C@H]2C(=O)NC(c1ccccc1)c1ccccc1` (some centres unmarked) [Compound 46a] has an IC50 (MDA-MB-231 cells; MDA-MB-231, 96 hours, MTT) of 0.116 ± 0.002 µM and an IC80 (MDA-MB-231 cells; MDA-MB-231, 96 hours, MTT) of 0.17 ± 0.002 µM.

Molecule `CC(=O)O[C@H]1C(=O)[C@@]2(C)[C@H]([C@H](OC(=O)c3ccccc3)[C@]3(O)C[C@H](OC(=O)[C@H](O)[C@@H](NC(=O)c4ccccc4)c4ccccc4)C(C)=C1C3(C)C)[C@]1(OC(C)=O)CO[C@@H]1C[C@@H]2O` [Taxol, taxol, reference compound] has a viability at 0.1 µM (K562 cells [1]) of 69%.

B1: mature Smac protein: mature Smac/DIABLO protein, endogenous inhibitor of XIAP (protein, UniProt Q9NR28 22-239, looked up)
Diablo IAP-binding …: LCVPVVANFKKRCFSELIRPWHKTVTIGFGVTLCAVPIAQKSEPHSLSSEALMRRAVSLVTDSTSTFLSQTTYALIEAITEYTKAVYTLTSLYRQYTSLLGKMNSEEEDEVWQVIIGARAEMTSKHQEYLKLETTWMTAVGLSEMAAEAAYQTGADQASITARNHIQLVKLQVEEVHQLSRKAETKLAEAQIEELRQKTQEEGEERAESEQEAYLRED
In the case of B1, the Kd (XIAP) is given as 0.42 µM.
